# Patent publication US12291494B2, “Methods of treating fibrosis” (Nogra Pharma Limited, priority 2012, dated 2025)
# Assays:
# Collagen I = test: DSS intestinal fibrosis study: Western blot of colon, Collagen I; type: in vivo, mice; settings: whole colon, OD normalized with GAPDH, expressed as percentage of control groups; DSS 284.4 ± 63.86; listed as GED
# Description: For the Western blot analysis, 0.5 cm of frozen colonic samples were homogenized in RIPA Buffer containing 50 mM Tris HCl pH 7.6, 150 mM NaCl, 1.5 mM MgCl2, 5 mM EDTA, 1% Triton-X and 10% Glycerol, supplemented with 100 mM Sodium Fluoride (NaF), 2 mM Sodium Orthovanadate (Na3VO4), 10 mM Sodium Pyrophosphate (NaPPi), 1 mM phenylmethanesulphone (PMSF) and a classical protease-inhibitor cocktail containing 10 μg/mL Leupeptin and Aprotinin.
# For each sample, 30 μg of protein was separated by PAGE and electroblotted. Nitrocellulose membranes (100% pure) were incubated (according with a specific protocol for each antibody) with primary antibodies directed against CTGF, Collagen-I and GAPDH (purchased from Abcam, Cambridge, UK; 1:1000 for 2 h at RT), diluted in 5% non-fat milk in 0.1% TBS-t. […] Optical density of target bands was determined using a computer-assisted densitometer and the ImageJ public domain software (W. S., Rasband, ImageJ, U. S. National Institutes of Health, Bethesda, MD; http://rsb.info.nih.gov/ij/, 1997-2011). Tissue levels were expressed as units of Optical Density (OD) per quantity of total proteins, normalized with internal control GAPDH and the results were expressed as percentage of control groups.
# C57BL/6 mice = test: DSS chronic colitis (Ex. 7): macroscopic colonic findings; type: in vivo
# Description: Finally, seven days after the last DSS cycle administration, the animals of each group were sacrificed by cervical dislocation under deep CO2 anaesthesia and undergone to laparotomy. The colon were visualized and rapidly excised. The length of the whole colon-rectum and the weight of the distal 8 cm of colon-rectum were measured.
# The macroscopic colonic lesions including dilation, thickness and stenosis were scored by an independent observer, unaware of the mice treatment. Tissue specimens from the colon were dissected and immediately frozen or fixed in fresh 4% formaldehyde (FA)/PBS solution for 3 h at room temperature followed by the standard procedure for paraffin embedding. Paraffin embedded tissues transversally sectioned at 3 μm were subject to Hematoxylin/Eosin staining, to assess the inflammatory degree, and Masson trichrome to better assess connective tissue and fibrosis. The stained sections were then blindly observed under an Olympus BX51 Light Microscope (Olympus, Optical Co. Ltd., Tokyo, Japan) by two pathologists which have performed the histological score evaluating: i. presence of ulcers (0=absent, 1=little ulcers, 2=big ulcers); ii. the inflammatory degree (0=absent 1=mild, 2=moderate and 3=severe); iii. depth of lesions (0=absent, 1=lesions extending in the submucosa, 2=lesions in the muscolarispropria and 3=lesions in the serosa); iv. degree of fibrosis (0=absent 1=mild, 2=moderate and 3=severe). The degree of intestinal inflammation was assessed according to the density and extent of chronic inflammatory infiltrate, loss of goblet cells, and bowel wall thickening. A total microscopic score will be obtained as sum of all scores (maximum score possible=[…]).
# At no stage frank rectal bleeding or rectal prolapse were observed. The mice were sacrificed on day 15 and day 30, respectively, and the colon was subjected to macroscopic evaluation by measuring of colon weight (referred to the last 8 cm of the distal large bowel) and colon length and by observing the presence of adhesions, strictures, dilatation, thickness that was scored as 0 if absent; 1 if mild or moderate; and 2 if severe. The total macroscopic score was calculated as sum of all these score.
# [1] = chronic DSS colitis, GED 30 mg/kg oral daily, mean ± SEM
smiles,measurement,setting,value
"COC(Cc1ccc(N)cc1)C(=O)O (racemic) [Compound 34, (±)-2-methoxy-3-(4′-aminophenyl) propionic acid]",Collagen I (Western blot),Collagen I,90.75±19.91
same,reduction respect to the profibrotic effect of DSS (colon ratio weight/size),"C57BL/6 mice; Ex. 7, GED 30 mg/kg oral daily",26%
same,ratio weight/size of the colon,"C57BL/6 mice; Ex. 7, GED 30 mg/kg oral daily, DSS 44.98±6.31, control 20.11±3.91",38.13±7.82
same,Adhesions (score 0-2),C57BL/6 mice; [1],0.12 ± 0.1^¥¥
same,Colon length,C57BL/6 mice; [1],7.092 ± 0.16**/ ^
same,Colon weight/body weight ratio,C57BL/6 mice; [1],0.27 ± 0.012**/^¥¥
same,Dilation (score 0-2),C57BL/6 mice; [1],1.12 ± 0.185**/^¥¥
same,Stenosis (score 0-2),C57BL/6 mice; [1],0.32 ± 0.114**/^¥
same,Thickness (score 0-2),C57BL/6 mice; [1],0.48 ± 0.108**/^¥
same,Total macroscopic score,"C57BL/6 mice; chronic DSS colitis, GED 30 mg/kg oral daily, mean ± SEM, DSS 3.112 ± 0.31",2.02 ± 0.26**/^¥¥
same,Colon weight,"C57BL/6 mice; distal 8 cm of colon-rectum, chronic DSS colitis, GED 30 mg/kg oral daily, mean ± SEM",0.269 ± 0.007 ^
